Source: ChEMBL document CHEMBL5241060, “Glycorandomization: A promising diversification strategy for the drug development” (Eur J Med Chem, 2021)
In brackets after ≈: the same amount, converted by molar mass.

How the values were obtained:
MDA-MB-231 = experiment: Inhibition of cell migration in human MDA-MB-231 cells; format: functional, cell-based
Escherichia coli [1] = experiment: Antibacterial activity against tetracycline resistant Escherichia coli; format: functional
Escherichia coli [2] = experiment: Antibacterial activity against tetracycline resistant Escherichia coli 1-849; format: functional

Compound	MIC (Escherichia coli [1]) [µM]	further results
CCCCCCCCCCCCCC(=O)NCCNC(=O)C(C)(C)C(=O)NCCO[C@@H]1O[C@H](COC(C)=O)[C@@H](O[C@@H]2O[C@H](COC(C)=O)[C@H](OC(C)=O)[C@H](OC(C)=O)[C@H]2OC(C)=O)[C@H](OC(C)=O)[C@H]1OC(C)=O	–	IC50 (MDA-MB-231): > 50 µM
C[C@H]1O[C@@H](O[C@@H]2[C@@H](O)[C@H](N)C[C@H](N)[C@H]2O[C@H]2O[C@H](CN)[C@@H](O)[C@H](O)[C@H]2N)[C@H](O)[C@@H](O)[C@@H]1N	9 (≈ 4.21 µg/mL)	–
CON(CC(=O)Nc1ccc2c(c1O)C(=O)C1=C(O)[C@]3(O)C(=O)C(C(N)=O)=C(O)[C@@H](N(C)C)[C@@H]3[C@@H](O)[C@@H]1[C@H]2C)[C@H]1O[C@H](CO)[C@@H](O)[C@H](O)[C@H]1N	–	MIC (Escherichia coli [2]): 4 µg/mL (≈ 5.65 µM)
C[C@H]1O[C@@H](O[C@@H]2[C@@H](O)[C@H](N)C[C@H](N)[C@H]2O[C@H]2O[C@H](CN)[C@@H](O)[C@H](O)[C@H]2N)[C@H](O)[C@@H](O)[C@H]1N	9 (≈ 4.21 µg/mL)	–
NC[C@@H]1O[C@H](O[C@H]2[C@@H](O)[C@H](O[C@@H]3[C@@H](O)[C@H](N)C[C@H](N)[C@H]3O[C@H]3O[C@H](CN)[C@@H](O)[C@H](O)[C@H]3N)O[C@@H]2CO)[C@H](N)[C@@H](O)[C@@H]1O [FRAMYCETIN]	2 (≈ 1.23 µg/mL)	–
